{"source": "paper PMC12785804", "about": "“Triterpenoids CDDO and CDDO-EA Inhibit the Replication of Hepatitis B Virus by Modulating Nucleocapsid Assembly” (International Journal of Molecular Sciences, 2025)", "key": {"[1]": {"biological_target": "T1, HBc (HBV core protein) in HepAD38 lysate (Hepatitis B virus ayw/France/Tiollais/1979, UniProt P03146)", "T1 construct": "gene C; full-length core expressed from the integrated tetracycline-regulated HBV genome of HepAD38 (HepG2-derived); freeze-thaw cell lysate", "T1 sequence (P03146 whole entry)": "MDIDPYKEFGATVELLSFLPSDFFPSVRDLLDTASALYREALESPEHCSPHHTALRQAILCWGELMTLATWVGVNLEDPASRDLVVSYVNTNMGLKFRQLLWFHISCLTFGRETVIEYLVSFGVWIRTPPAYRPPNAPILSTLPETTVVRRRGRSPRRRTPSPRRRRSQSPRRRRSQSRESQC", "assay": "CETSA, Western blot", "format": "biochemical", "details": "cell lysate, 30 min at room temperature, then 37-72 °C for 3 min"}, "[2]": {"biological_target": "T2, HBc protein (HBV core protein), purchased (Hepatitis B virus ayw/France/Tiollais/1979, UniProt P03146)", "T2 construct": "gene C; purchased from Sino Biological; immobilised on CM5 chip", "T2 sequence (P03146 whole entry)": "as above", "assay": "SPR (Reichert4, CM5 chip)", "format": "binding"}}, "data": [{"molecule": "CC1(C)CC[C@]2(C(=O)O)CC[C@]3(C)[C@H](C(=O)C=C4[C@@]5(C)C=C(C#N)C(=O)C(C)(C)[C@@H]5CC[C@]43C)[C@@H]2C1", "note": "[CDDO, 2-cyano-3,12-dioxooleana-1,9-dien-28-oic acid]", "values": [{"measurement": "thermal shift (right-shifted CETSA melting curve)", "setting": "[1]; 0.8 μM compound", "value": "CDDO-EA and CDDO treatments significantly stabilized HBc protein"}, {"measurement": "SPR binding", "setting": "[2]", "value": "compounds CDDO-EA and CDDO exhibited weak binding kinetics to HBc protein"}]}, {"molecule": "CCNC(=O)[C@]12CCC(C)(C)C[C@H]1[C@H]1C(=O)C=C3[C@@]4(C)C=C(C#N)C(=O)C(C)(C)[C@@H]4CC[C@@]3(C)[C@]1(C)CC2", "note": "[CDDO-EA]", "values": [{"measurement": "thermal shift (right-shifted CETSA melting curve)", "setting": "[1]; 0.4 μM compound", "value": "CDDO-EA and CDDO treatments significantly stabilized HBc protein"}, {"measurement": "SPR binding", "setting": "[2]", "value": "compounds CDDO-EA and CDDO exhibited weak binding kinetics to HBc protein"}]}]}
